Results reported in patent publication EP2921486B1, “Compositions and methods for treating beta-amyloid related diseases” (American Life Science Pharmaceuticals, Inc., priority 2009, dated 2011).
Where two headings read alike, the source gives them in different places.

Assays:
[1] = test system: brain cathepsin B; assay: Brain cathepsin B activity after once-a-day oral gavage (fluorometric kit); type: in vivo; settings: guinea pigs, once-a-day oral administration
From the text: (§1) Guinea Pigs. Guinea Pigs (Harley strain, average weight 400 g corresponding to animals about 6 weeks old) were obtained from Charles River (Wilmington, MA). The animals were given free access to standard chow and water before and during the experiment.
(§2) Gavage Formulation: Delivering a drug by gavage offers the advantage of accurate dosing but is traumatic and thus only suitable for relatively short dosing periods. Gavage delivery was used for the guinea pig work. E64d was resuspended in DMSO at indicated concentrations (see Figures, and below) and guinea pigs were gavaged daily using a feeding tube. Vehicle control animals were provided DMSO alone.
(§3) Guinea Pig Gavage Dosing: Guinea pigs were gavaged daily for one week. Guinea pigs were lightly anesthetized with isoflurane prior to gavaging. 250 µl of compound solution was gavaged daily per animal and animals were sacrificed 4 hrs after the last dosing.
The brain cathepsin B activity in guinea pigs was measured as follows: Cathepsin B activity was determined using a fluorometric assay kit from Abeam, Inc. (catalog ab65300; Cambridge, MA) as described by the manufacturer.

[2] = test system: brain BACE1; assay: Brain BACE1 activity after once-a-day oral gavage (fluorometric kit); type: in vivo; settings: guinea pigs, once-a-day oral administration
From the text: as §1, §2, §3
The brain BRACE1 activity in guinea pigs was measured by Beta secretase activity was determined using a fluorometric assay kit from Abcam (ab65357) as described by the manufacturer.

[3] = test system: Aβ(40) and Aβ(42); assay: Brain, CSF and plasma Aβ ELISA after once-a-day oral gavage for one week (Example 9); type: in vivo; settings: guinea pigs
From the text: as §1, §2, §3

[4] = rats, cited from earlier work
[5] = test system: brain Aβ40 and brain Aβ42; settings: guinea pig, oral 10 mg/kg/day, 7 days
[6] = maximal intravenous or oral doses, rats; cited from earlier work
[7] = healthy human volunteers, oral, about 5 mg/kg/day, single or continuous 1 week; cited from earlier work
[8] = cited from earlier work
[9] = test system: brain Aβ(40) and Aβ(42); settings: for Summary Aβ 40 Mean % Control / Summary Aβ 42 Mean % Control: 1 & 3 month feeding; for Aβ 40 Difference / Aβ 42 Difference: control minus treated; for Aβ 40 % Control / Aβ 42 % Control: per cent reduction in Aβ
[10] = cited from earlier work; remark: listed apart in the source
[11] = high oral doses (500 mg/kg and 1 g/kg), cited from earlier work
[12] = test system: transgenic APPlon mice; assay: Morris water maze test, spatial memory deficit; type: in vivo; settings: E64d-doped chow for 1 month or 3 months, either age group
From the text: Figure 16 is not descriptive of the claimed invention. Figure 16 graphically illustrates data showing the effects of AB-007 (E64d, loxistatin)-doped chow on the spatial memory deficit that develops in transgenic APPlon (London APP) mice, see above description, and e.g. Hook, et al. (2008) supra. The Morris water maze test was used to measure the latency period, which is the time it takes an animal to swim to a submerged and not visible platform after having been previously trained as to the location of that platform. The longer the latency period, the poorer the spatial memory. Two groups of animals were evaluated, young and old mice.

[13] = oral, dogs; cited from earlier work
[14] = 5-week stability test at 60°C; type: physicochemical; settings: read-out: compound remaining
[15] = Old mice, 1 month feeding E64d doped chow
[16] = Old mice, 3 month feeding E64d doped chow
[17] = Young mice, 1 month feeding E64d doped chow
[18] = Young mice, 3 month feeding E64d doped chow

Structure (SMILES): [2H]C([2H])([2H])C([2H])(CCNC(=O)[C@H](CC(C)C)NC(=O)[C@H]1O[C@@H]1C(=O)OCC)C([2H])([2H])[2H] [Compound E64d7]
- brain cathepsin B activity [1]: dose response reduction
- brain BACE1 activity [2]: increase
- CSF Aβ [3]: dose response reduction
- CSF Aβ(42) [3]: dose response reduction
- brain Aβ(40) [3]: dose response reduction
- brain Aβ(42) [3]: dose response reduction
- plasma Aβ(40) [3]: dose response reduction
- plasma Aβ(42) [3]: dose response reduction

Structure (SMILES): CCOC(=O)[C@H]1O[C@@H]1C(=O)N[C@@H](CC(C)C)C(=O)NCCC(C)C (relative stereo) [AB-007, (2S,3S)-trans-epoxysuccinyl-L-leucyl-amido-3-methylbutane ethyl ester]
- LD50 ([4]; oral): over 10,000 mg/kg
- hepatic injury ([4]; does not occur in other species): hepatic injury seen in rats
- reduction of brain Aβ40 relative to vehicle treated controls [5]: 42%
- reduction of brain Aβ42 relative to vehicle treated controls [5]: 42%
- influence on vision or hearing [6]: do not influence
- hematological tests, blood chemistry, urinalyses [7]: no changes
- pulse, blood pressure, body temperature, grip force, electrocardiogram, physician observations [7]: no change
- brain cathepsin B activity [1]: dose response reduction
- drug accumulation ([8]; humans): No drug accumulation
- total urinary excretion rate ([8]; humans): about 30%
- conversion in the gut to E64c (loxistatin acid) ([8]; oral): rapidly and completely converted
- Summary Aβ 40 Mean % Control ([9]; All Ages): 64%
- Summary Aβ 42 Mean % Control ([9]; All Ages): 52%
- Summary Aβ 40 Mean % Control ([9]; Old mice): 65%
- Summary Aβ 42 Mean % Control ([9]; Old mice): 42%
- Aβ 40 Mean treated [9, 15]: 87.1
- Aβ 42 Mean treated [9, 15]: 31.9
- Aβ 40 Difference ([9]; Old mice, 1 month feeding): 142.9
- Aβ 42 Difference ([9]; Old mice, 1 month feeding): 26.6
- Aβ 40 % Control ([9]; Old mice, 1 month feeding): 62%
- Aβ 42 % Control ([9]; Old mice, 1 month feeding): 45%
- Aβ 40 Mean treated [9, 16]: 91.2
- Aβ 42 Mean treated [9, 16]: 61.3
- Aβ 40 Difference ([9]; Old mice, 3 month feeding): 195.3
- Aβ 42 Difference ([9]; Old mice, 3 month feeding): 38.5
- Aβ 40 % Control ([9]; Old mice, 3 month feeding): 68%
- Aβ 42 % Control ([9]; Old mice, 3 month feeding): 39%
- Summary Aβ 40 Mean % Control ([9]; Young mice): 60%
- Summary Aβ 42 Mean % Control ([9]; Young mice): 62%
- Aβ 40 Mean treated [9, 17]: 47.7
- Aβ 42 Mean treated [9, 17]: 5.5
- Aβ 40 Difference ([9]; Young mice, 1 month feeding): 47.5
- Aβ 42 Difference ([9]; Young mice, 1 month feeding): 6
- Aβ 40 % Control ([9]; Young mice, 1 month feeding): 50%
- Aβ 42 % Control ([9]; Young mice, 1 month feeding): 52%
- Aβ 40 Mean treated [9, 18]: 38.7
- Aβ 42 Mean treated [9, 18]: 4.5
- Aβ 40 Difference ([9]; Young mice, 3 month feeding): 87.4
- Aβ 42 Difference ([9]; Young mice, 3 month feeding): 11.7
- Aβ 40 % Control ([9]; Young mice, 3 month feeding): 69%
- Aβ 42 % Control ([9]; Young mice, 3 month feeding): 72%
- oral dose absorbed ([10]; primary absorption site small intestine): about 60%
- concentration in all other organs, including the brain ([10]; radioactive AB-007): corresponding to the plasma concentration or concentrations lower than plasma
- kidneys concentration relative to plasma concentration ([10]; radioactive AB-007): ~12 times
- liver concentration relative to plasma concentration ([10]; radioactive AB-007): about 25 times
- time of maximum tissue concentration after administration ([10]; radioactive AB-007): 0.5 h
- effect on the cardiovascular system [11]: no effect
- effect on the central nervous system ([11]; sedation, mild inhibition of pentetrazol-induced seizure): depress the central nervous system
- mean latency period relative to age-matched controls [12]: significantly reduced
- brain BACE1 activity [2]: increase
- LD50 [13]: > 5,000 mg/kg
- remaining at 840 h [14]: 99%
- CSF Aβ [3]: dose response reduction
- CSF Aβ(42) [3]: dose response reduction
- brain Aβ(40) [3]: dose response reduction
- brain Aβ(42) [3]: dose response reduction
- plasma Aβ(40) [3]: dose response reduction
- plasma Aβ(42) [3]: dose response reduction
